Measured values as given in the NIST ThermoML archive (doi:10.1016/j.jct.2012.02.005).
Numbers after ± are expanded uncertainties.

Legend:
[1] = Crystal; DTA
[2] = Molar enthalpy of transition or fusion; conditions: Crystal; DSC

Triple point temperature [1]: 316.96 ± 0.39 K
Molar enthalpy of transition or fusion [2]: 16.3 ± 0.39 kJ/mol
Compound: c1ccc2nsnc2c1 [2,1,3-benzothiadiazole]
